{
  "source": "patent EP2676666A1",
  "about": "“Compounds for use in diagnosis or therapy of vulnerable atherosclerotic plaques” (Eidgenössische Technische Hochschule Zürich (ETH), priority 2012, dated 2013)",
  "tested_on": "human atherosclerotic plaques",
  "experiment": "Autoradiography binding study on human atherosclerotic plaque sections",
  "details": "2.5 nM; for maximal bound ^11C-Compound 4: average value (red line), 20 min, room temperature, values normalized to vulnerable plaque 8",
  "protocol": "Compound 4 was labeled with ^11C (specific activity ~350 GBq/µmol) and human atherosclerotic sections were incubated with 2.5 nM for 20 min, room temperature. Nonspecific binding was determined in the presence of excess nonradioactive Compound 4 (100 µM). After washing to remove unspecific bound ^11C-Compound 4, slides were exposed to a radiosensitive film (BAS-5000 Fujifilm) for 30 min. Calibration standards (2.5 - 0.02 nM) were included in the cassette. Films were developed using an automatic film processor (BAS 5000, Fuji) Quantitative analysis was performed using a computerized image analysis system (AIDA Image Analyzer Software). Optical density readings, corrected for background, were made and values standardized against the linear portion of a curve generated using standards and expressed as maximal bound ^11C-Compound 4. Values were normalized to patient \"vulnerable plaque 8\" (Fig. 5).",
  "data": [
    {"molecule": "[11CH3]N1CCC(NC(=O)c2ccc(-n3nc4c5cccc(F)c5[nH]nc-4c3=O)cc2)CC1", "note": "[^11C-Compound 4]", "values": [
      {"measurement": "maximal bound ^11C-Compound 4", "setting": "Fig. 5 (B)", "result": 0.7},
      {"measurement": "maximal bound ^11C-Compound 4", "setting": "Fig. 5 (C), stable plaques", "result": 0.15},
      {"measurement": "maximal bound ^11C-Compound 4", "setting": "Fig. 5 (C), vulnerable plaques", "result": 1.2},
      {"measurement": "binding to vulnerable plaques compared to stable plaques", "setting": "conclusion in words from the autoradiography", "result": "higher affinity to vulnerable plaques compared to stable plaques"}
    ]}
  ]
}
